# Experimental data from paper PMC6414696 (mBio, 2019).
# Read-outs that look alike come from different tables or passages of the source.
# Legend:
# [1] = tested on: A. baumannii ARC5955; conditions: A. baumannii ARC5955 carrying blaTEM-1, blaADC-82, blaOXA-23, blaOXA-66; cited from earlier work
# [2] = tested on: A. nosocomialis (M2); assay type: cell-based, Acinetobacter nosocomialis; conditions: ETX2514 at 4 mg/liter in combination
# [3] = target: OXA-66 β-lactamase (Acinetobacter baumannii, UniProt Q58XD2); test: β-Lactamase steady-state kinetic analysis, OXA-66; assay type: biochemical, A. baumannii; conditions: OXA-66; data not shown
# Sequence of OXA-66 β-lactamase (Q58XD2 entry or part of it): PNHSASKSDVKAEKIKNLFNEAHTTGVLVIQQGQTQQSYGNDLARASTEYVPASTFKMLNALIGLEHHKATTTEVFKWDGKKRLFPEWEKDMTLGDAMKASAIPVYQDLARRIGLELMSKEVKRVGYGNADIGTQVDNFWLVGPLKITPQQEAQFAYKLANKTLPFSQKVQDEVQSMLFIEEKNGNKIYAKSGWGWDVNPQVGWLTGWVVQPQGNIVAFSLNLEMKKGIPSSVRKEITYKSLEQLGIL
# [4] = tested on: A. baumannii clinical isolates; test: microbe, parasite or virus in culture; assay type: cell-based, Acinetobacter baumannii; conditions: for MIC: Acinetobacter baumannii
# [5] = tested on: A. baumannii ARC5955; test: Neutropenic murine thigh infection model; assay type: in vivo; conditions: thigh tissue, CD-1 mice, 24 h after initiation of therapy, 75 mg/kg SC/q3h; for Change in log10 CFU/g: 75 mg/kg
# [6] = tested on: A. baumannii (ATCC 17978); assay type: cell-based, Acinetobacter baumannii; conditions: ETX2514 at 4 mg/liter in combination
# [7] = tested on: A. baumannii isolates; conditions: panel of A. baumannii isolates in a previous study; cited from earlier work
smiles,measurement,setting,value
CC1(C)[C@H](C(=O)O)N2C(=O)C[C@H]2S1(=O)=O [Sulbactam],MIC,[1],64 µg/mL
same,MIC,[2]; M2 WT,2 µg/mL
same,MIC,[2]; M2 ΔadeB/ΔadeJ,2 µg/mL
same,MIC,[2]; M2 ΔadeJ,2 µg/mL
same,substrate quality for the enzyme,[3],very poor substrate
same,MIC90,"[4]; 72 WRAMC A. baumannii isolates, ETX2514 at 4 mg/liter in combination",32 µg/mL
same,isolates resistant (MIC ≥ 16 mg/liter),[4]; 72 WRAMC isolates (34/72),47%
same,MIC,"[4]; strain AB001, ETX2514 at 4 mg/liter in combination",16 µg/mL
same,MIC,"[4]; strain AB002, ETX2514 at 4 mg/liter in combination",8 µg/mL
same,MIC,"[4]; strain AB003, ETX2514 at 4 mg/liter in combination",8 µg/mL
same,MIC,"[4]; strain AB004, ETX2514 at 4 mg/liter in combination",4 µg/mL
same,MIC,"[4]; strain AB005, ETX2514 at 4 mg/liter in combination",4 µg/mL
same,MIC,"[4]; strain AB006, ETX2514 at 4 mg/liter in combination",4 µg/mL
same,MIC,"[4]; strain AB007, ETX2514 at 4 mg/liter in combination",4 µg/mL
same,MIC,"[4]; strain AB008, ETX2514 at 4 mg/liter in combination",4 µg/mL
same,MIC,"[4]; strain AB009, ETX2514 at 4 mg/liter in combination",4 µg/mL
same,MIC,"[4]; strain AB010, ETX2514 at 4 mg/liter in combination",4 µg/mL
same,MIC,"[4]; strain AB011, ETX2514 at 4 mg/liter in combination",8 µg/mL
same,MIC,"[4]; strain AB012, ETX2514 at 4 mg/liter in combination",4 µg/mL
same,MIC,"[4]; strain AB013, ETX2514 at 4 mg/liter in combination",4 µg/mL
same,MIC,"[4]; strain AB014, ETX2514 at 4 mg/liter in combination",4 µg/mL
same,MIC,"[4]; strain AB015, ETX2514 at 4 mg/liter in combination",4 µg/mL
same,MIC,"[4]; strain AB016, ETX2514 at 4 mg/liter in combination",4 µg/mL
same,MIC,"[4]; strain AB017, ETX2514 at 4 mg/liter in combination",32 µg/mL
same,MIC,"[4]; strain AB018, ETX2514 at 4 mg/liter in combination",64 µg/mL
same,MIC,"[4]; strain AB019, ETX2514 at 4 mg/liter in combination",16 µg/mL
same,MIC,"[4]; strain AB020, ETX2514 at 4 mg/liter in combination",16 µg/mL
same,MIC,"[4]; strain AB021, ETX2514 at 4 mg/liter in combination",16 µg/mL
same,MIC,"[4]; strain AB022, ETX2514 at 4 mg/liter in combination",16 µg/mL
same,MIC,"[4]; strain AB023, ETX2514 at 4 mg/liter in combination",16 µg/mL
same,MIC,"[4]; strain AB024, ETX2514 at 4 mg/liter in combination",16 µg/mL
same,MIC,"[4]; strain AB025, ETX2514 at 4 mg/liter in combination",16 µg/mL
same,MIC,"[4]; strain AB026, ETX2514 at 4 mg/liter in combination",16 µg/mL
same,MIC,"[4]; strain AB027, ETX2514 at 4 mg/liter in combination",16 µg/mL
same,MIC,"[4]; strain AB028, ETX2514 at 4 mg/liter in combination",16 µg/mL
same,MIC,"[4]; strain AB029, ETX2514 at 4 mg/liter in combination",16 µg/mL
same,MIC,"[4]; strain AB030, ETX2514 at 4 mg/liter in combination",16 µg/mL
same,MIC,"[4]; strain AB031, ETX2514 at 4 mg/liter in combination",16 µg/mL
same,MIC,"[4]; strain AB032, ETX2514 at 4 mg/liter in combination",16 µg/mL
same,MIC,"[4]; strain AB033, ETX2514 at 4 mg/liter in combination",64 µg/mL
same,MIC,"[4]; strain AB034, ETX2514 at 4 mg/liter in combination",16 µg/mL
same,MIC,"[4]; strain AB035, ETX2514 at 4 mg/liter in combination",16 µg/mL
same,MIC,"[4]; strain AB036, ETX2514 at 4 mg/liter in combination",16 µg/mL
same,MIC,"[4]; strain AB037, ETX2514 at 4 mg/liter in combination",64 µg/mL
same,MIC,"[4]; strain AB038, ETX2514 at 4 mg/liter in combination",16 µg/mL
same,MIC,"[4]; strain AB039, ETX2514 at 4 mg/liter in combination",4 µg/mL
same,MIC,"[4]; strain AB040, ETX2514 at 4 mg/liter in combination",32 µg/mL
same,MIC,"[4]; strain AB041, ETX2514 at 4 mg/liter in combination",16 µg/mL
same,MIC,"[4]; strain AB042, ETX2514 at 4 mg/liter in combination",4 µg/mL
same,MIC,"[4]; strain AB043, ETX2514 at 4 mg/liter in combination",4 µg/mL
same,MIC,"[4]; strain AB044, ETX2514 at 4 mg/liter in combination",4 µg/mL
same,MIC,"[4]; strain AB045, ETX2514 at 4 mg/liter in combination",2 µg/mL
same,MIC,"[4]; strain AB046, ETX2514 at 4 mg/liter in combination",4 µg/mL
same,MIC,"[4]; strain AB047, ETX2514 at 4 mg/liter in combination",4 µg/mL
same,MIC,"[4]; strain AB048, ETX2514 at 4 mg/liter in combination",4 µg/mL
same,MIC,"[4]; strain AB049, ETX2514 at 4 mg/liter in combination",4 µg/mL
same,MIC,"[4]; strain AB050, ETX2514 at 4 mg/liter in combination",4 µg/mL
same,MIC,"[4]; strain AB051, ETX2514 at 4 mg/liter in combination",2 µg/mL
same,MIC,"[4]; strain AB052, ETX2514 at 4 mg/liter in combination",64 µg/mL
same,MIC,"[4]; strain AB053, ETX2514 at 4 mg/liter in combination",32 µg/mL
same,MIC,"[4]; strain AB054, ETX2514 at 4 mg/liter in combination",64 µg/mL
same,MIC,"[4]; strain AB055, ETX2514 at 4 mg/liter in combination",16 µg/mL
same,MIC,"[4]; strain AB056, ETX2514 at 4 mg/liter in combination",8 µg/mL
same,MIC,"[4]; strain AB057, ETX2514 at 4 mg/liter in combination",16 µg/mL
same,MIC,"[4]; strain AB058, ETX2514 at 4 mg/liter in combination",32 µg/mL
same,MIC,"[4]; strain AB059, ETX2514 at 4 mg/liter in combination",32 µg/mL
same,MIC,"[4]; strain AB060, ETX2514 at 4 mg/liter in combination",8 µg/mL
same,MIC,"[4]; strain AB061, ETX2514 at 4 mg/liter in combination",8 µg/mL
same,MIC,"[4]; strain AB062, ETX2514 at 4 mg/liter in combination",8 µg/mL
same,MIC,"[4]; strain AB063, ETX2514 at 4 mg/liter in combination",32 µg/mL
same,MIC,"[4]; strain AB064, ETX2514 at 4 mg/liter in combination",8 µg/mL
same,MIC,"[4]; strain AB065, ETX2514 at 4 mg/liter in combination",8 µg/mL
same,MIC,"[4]; strain AB066, ETX2514 at 4 mg/liter in combination",4 µg/mL
same,MIC,"[4]; strain AB067, ETX2514 at 4 mg/liter in combination",4 µg/mL
same,MIC,"[4]; strain AB068, ETX2514 at 4 mg/liter in combination",4 µg/mL
same,MIC,"[4]; strain AB069, ETX2514 at 4 mg/liter in combination",4 µg/mL
same,MIC,"[4]; strain AB070, ETX2514 at 4 mg/liter in combination",32 µg/mL
same,MIC,"[4]; strain AB071, ETX2514 at 4 mg/liter in combination",8 µg/mL
same,MIC,"[4]; strain AB072, ETX2514 at 4 mg/liter in combination",4 µg/mL
same,MIC,"[4]; strain CCF 1MR, carbapenem resistant, ETX2514 at 4 mg/liter in combination",32 µg/mL
same,MIC,"[4]; strain CCF 2MR, carbapenem resistant, ETX2514 at 4 mg/liter in combination",16 µg/mL
same,MIC,"[4]; strain CCF 3MR, carbapenem resistant, ETX2514 at 4 mg/liter in combination",4 µg/mL
same,MIC,"[4]; strain CCF 4MR, carbapenem resistant, ETX2514 at 4 mg/liter in combination",16 µg/mL
same,MIC,"[4]; strain CCF 5MR, carbapenem resistant, ETX2514 at 4 mg/liter in combination",16 µg/mL
same,MIC,"[4]; strain CCF 6MR, carbapenem resistant, ETX2514 at 4 mg/liter in combination",16 µg/mL
same,MIC,"[4]; strain CCF 7MR, carbapenem resistant, ETX2514 at 4 mg/liter in combination",32 µg/mL
same,MIC,"[4]; strain CCF 8MR, carbapenem resistant, ETX2514 at 4 mg/liter in combination",8 µg/mL
same,MIC,"[4]; strain UH AB202, carbapenem resistant, ETX2514 at 4 mg/liter in combination",16 µg/mL
same,MIC,"[4]; strain UH AB461, carbapenem resistant, ETX2514 at 4 mg/liter in combination",8 µg/mL
same,MIC,"[4]; strain UH AB477, carbapenem resistant, ETX2514 at 4 mg/liter in combination",16 µg/mL
same,MIC,"[4]; strain UH AB487, carbapenem resistant, ETX2514 at 4 mg/liter in combination",16 µg/mL
same,MIC,"[4]; strain UH AB489, carbapenem resistant, ETX2514 at 4 mg/liter in combination",16 µg/mL
same,MIC,"[4]; strain UH AB490, carbapenem resistant, ETX2514 at 4 mg/liter in combination",16 µg/mL
same,MIC,"[4]; strain UH AB491, carbapenem resistant, ETX2514 at 4 mg/liter in combination",16 µg/mL
same,MIC,"[4]; strain UH AB636, carbapenem resistant, ETX2514 at 4 mg/liter in combination",16 µg/mL
same,MIC,"[4]; strain UH AB660, carbapenem resistant, ETX2514 at 4 mg/liter in combination",16 µg/mL
same,MIC,"[4]; strain UH AB667, carbapenem resistant, ETX2514 at 4 mg/liter in combination",32 µg/mL
same,MIC,"[4]; strain VA-432, carbapenem resistant, ETX2514 at 4 mg/liter in combination",16 µg/mL
same,MIC,"[4]; strain VA-433, carbapenem resistant, ETX2514 at 4 mg/liter in combination",16 µg/mL
same,MIC,"[4]; strain VA-434, carbapenem resistant, ETX2514 at 4 mg/liter in combination",16 µg/mL
same,MIC,"[4]; strain VA-435, carbapenem resistant, ETX2514 at 4 mg/liter in combination",16 µg/mL
same,MIC,"[4]; strain VA-436, carbapenem resistant, ETX2514 at 4 mg/liter in combination",16 µg/mL
same,MIC,"[4]; strain VA-437, carbapenem resistant, ETX2514 at 4 mg/liter in combination",8 µg/mL
same,MIC,"[4]; strain VA-438, carbapenem resistant, ETX2514 at 4 mg/liter in combination",8 µg/mL
same,MIC,"[4]; strain VA-505, carbapenem resistant, ETX2514 at 4 mg/liter in combination",8 µg/mL
same,Log10 CFU/g,[5],9.0 log10 CFU/g
same,Change in log10 CFU/g,[5],2.5 log10 CFU/g
same,Change in log10 CFU/g,[5]; listed as sulbactam,> 2 log10 CFU/g
same,MIC,[6]; ATCC 17978 ΔadeB/ΔadeJ,1 µg/mL
same,MIC,[6]; ATCC 17978 ΔadeB,1 µg/mL
same,MIC,[6]; ATCC 17978 ΔadeJ,1 µg/mL
same,MIC90,[7],64 µg/mL
